According to patent publication US20230002373A1, “COMPOUNDS AND COMPOSITIONS FOR TREATING CONDITIONS ASSOCIATED WITH STING ACTIVITY” (IFM Due, Inc., priority 2019, published 2023):
Each block holds one compound with its values, some of them ahead of it.

Molecular target: T1, hSTING (Homo sapiens, UniProt Q86WV6, G230A/H232R/R293Q/R71H)
T1 construct: host or cells: THP1-Dual KO-IFNAR2 cells
Test: STING reporter assay (luciferase) in THP1-Dual KO-IFNAR2 cells stimulated with 2′3′cGAMP
Assay type: cell-based
Conditions: 15 μM 2′3′cGAMP, 24 h, class symbols
Protocol: STING pathway activation by the compounds described herein was measured using THP1-Dual™ cells (KO-IFNAR2).
THP1-Dual™ KO-IFNAR2 Cells (obtained from invivogen) were maintained in RPMI, 10% FCS, 5 ml P/S, 2 mM L-glut, 10 mM Hepes, and 1 mM sodium pyruvate. Compounds were spotted in empty 384 well tissue culture plates (Greiner 781182) by Echo for a final concentration of 0.0017-100 μM. Cells were plated into the TC plates […], 2×10E6 cells/mL. For activation with STING ligand, 2′3′cGAMP (MW 718.38, obtained from Invivogen), was prepared in Optimem media.
The following solutions were prepared for each 1×384 plate: • Solution A: 2 mL Optimem with one of the following stimuli: • 60 μL of 10 mM 2′3′cGAMP->150 μM stock • Solution B: 2 mL Optimem with 60 μL Lipofectamine 2000->Incubate 5 min at RT
2 mL of solution A and 2 ml Solution B was mixed and incubated for 20 min at room temperature (RT). 20 uL of transfection solution (A+B) was added on top of the plated cells, with a final 2′3′cGAMP concentration of 15 μM. The plates were then centrifuged immediately at 340 g for 1 minute, after which they were incubated at 37° C., 5% CO2, >98% humidity for 24 h. Luciferase reporter activity was then measured. EC50 values were calculated by using standard methods known in the art.
Luciferase reporter assay: 10 μL of supernatant from the assay was transferred to white 384-plate with flat bottom and squared wells. One pouch of QUANTI-Luc™ Plus was dissolved in 25 mL of water. 100 μL of QLC Stabilizer per 25 mL of QUANTI-Luc™ Plus solution was added. 50 μL of QUANTI-Luc™ Plus/QLC solution per well was then added. Luminescence was measured on a Platereader (e.g., Spectramax I3X (Molecular Devices GF3637001)).
Luciferase reporter activity was then measured. EC50 values were calculated by using standard methods known in the art.

T1 sequence (Q86WV6 whole entry R71H/G230A/H232R/R293Q): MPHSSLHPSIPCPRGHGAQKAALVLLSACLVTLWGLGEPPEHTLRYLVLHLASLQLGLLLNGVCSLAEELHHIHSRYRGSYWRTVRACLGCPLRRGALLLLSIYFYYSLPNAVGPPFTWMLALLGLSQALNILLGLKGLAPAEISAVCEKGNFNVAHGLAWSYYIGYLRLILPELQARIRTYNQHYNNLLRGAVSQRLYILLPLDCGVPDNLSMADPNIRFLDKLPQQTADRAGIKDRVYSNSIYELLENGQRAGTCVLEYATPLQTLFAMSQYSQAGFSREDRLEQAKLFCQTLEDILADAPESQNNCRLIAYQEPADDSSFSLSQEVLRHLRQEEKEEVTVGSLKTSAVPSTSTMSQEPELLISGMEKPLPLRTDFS

SMILES: O=C(Nc1c[nH]c2ncc(F)cc12)C(=O)N[C@H]1CCC2(CCCCC2)C1 (single isomer, unassigned) [Compound 201]
- EC50: 1000 to 5000 nM

SMILES: O=C(Nc1ccc(C2CCCCC2)nc1)C(=O)Nc1c[nH]c2ncc(F)cc12 [Compound 102, N^1-(6-cyclohexyl-pyridin-3-yl)-N^2-(5-fluoro-1H-pyrrolo[2,3-b]pyridin-3-yl)oxalamide]
- EC50: 1000 to 5000 nM

SMILES: COc1ccc(CNC(=O)C(=O)Nc2c[nH]c3ccncc23)cc1C(F)(F)F [Compound 165, N1-(4-methoxy-3-(trifluoromethyl)-benzyl)-N2-(1H-pyrrolo[3,2-c]pyridin-3-yl)oxalamide]
- EC50: 200 to 1000 nM

Continued, values first:

- EC50: 1000 to 5000 nM
SMILES: Cc1ccc(CNC(=O)C(=O)Nc2c[nH]c3ccc(-c4cnn(C)c4)nc23)cc1C(F)(F)F [Compound 130]

- EC50: 1000 to 5000 nM
SMILES: O=C(NCc1ccc(Cl)c(OC(F)(F)F)c1)C(=O)Nc1c[nH]c2c(F)cncc12 [Compound 208]

- EC50: 5000 to 100000 nM
SMILES: O=C(NCCC1CCC(F)(F)CC1)C(=O)Nc1c[nH]c2ccncc12 [Compound 122, N^1-(2-(4,4-difluorocyclo-hexyl)ethyl)-N^2-(1H-pyrrolo[3,2-c]pyridin-3-yl)oxalamide]
